Source: patent US5281406A, “Recovery of C60 and C70 buckminsterfullerenes from carbon soot by supercritical fluid extraction and their separation by adsorption chromatography” (Analytical Bio-Chemistry Laboratories, Inc., priority 1992, dated 1994)
≈ marks a conversion by molar mass, not a printed value. Where “and” joins values, the source holds several entries; their conditions need not be identical. Equal values may be shown once.

Legend:
[1] = Solubility of C60 and C70 fullerenes in methylene chloride/toluene mixtures; format: physicochemical
From the text: The solubilities of C60 and C70 were established for the binary solvent system of toluene and methylene chloride using mixtures varying in composition from 100% to 0% of each component.

[2] = Reported or stated solubility in single organic solvents (benzene, liquid toluene, organic solvents); format: physicochemical
[3] = room temperature; cited from earlier work
[4] = stable to pressures up to; Yoo and Nellis, Science, 254, p. 1489, 1991; cited from earlier work
[5] = many organic solvents, several weeks; cited from earlier work
[6] = 0.0% CH2Cl2 / 100% toluene, duplicate samples 1 and 2
[7] = 25.0% CH2Cl2 / 75% toluene, duplicate samples 3 and 4
[8] = 50.0% CH2Cl2 / 50% toluene, duplicate samples 5 and 6
[9] = 75.0% CH2Cl2 / 25% toluene, duplicate samples 7 and 8
[10] = 100.0% CH2Cl2 / 0% toluene, duplicate samples 9 and 10

Row | SMILES | Solubility [1, 6] | Solubility [1, 7] | Solubility [1, 8] | Solubility [1, 9] | Solubility [1, 10] | Solubility in organic solvents (in words) [2] | Reported solubility in benzene [3] | Reported stability to pressure [4] | Stability in organic solvents (in words) [5]
1 | c12c3c4c5c1c1c6c7c2c2c8c3c3c9c4c4c%10c5c5c1c1c6c6c%11c7c2c2c7c8c3c3c8c9c4c4c9c%10c5c5c1c1c6c6c%11c2c2c7c3c3c8c4c4c9c5c1c1c6c2c3c41 [C60, buckminsterfullerene] | 3530 µg/mL and 3470 µg/mL | 2830 µg/mL (≈ 3930 µM) | 1783 µg/mL and 1797 µg/mL | 895 µg/mL and 896 µg/mL | 556 µg/mL and 526 µg/mL | very low solubility | 5000 µg/mL | up to 2.5×10^6 psi | stable in many organic solvents for several weeks
2 | c12c3c4c5c1c1c6c7c2c2c8c3c3c9c4c4c%10c5c5c1c1c6c6c%11c%12c%13c%14c%15c%16c%17c%14c%14c%18c%13c%11c1c1c5c%10c5c(c%14c%10c%17c%11c%13c%16c%14c%16c%15c%12c%12c%16c(c2c7c%126)c2c8c3c(c%13c%142)c2c9c4c5c%10c%112)c%181 [C70] | 611 µg/mL and 597 µg/mL | 500 µg/mL (≈ 595 µM) | 328 µg/mL and 330 µg/mL | 184 µg/mL (≈ 219 µM) | 106 µg/mL and 95 µg/mL | very low solubility | – | – | –
